Literature values as cited in patent US6506736B1, “Method for obtaining and using a combination of a purine nucleotide and nitrogen monoxide donor for treating sexual dysfunction” (priority 1998, dated 2003).

What was measured:
[1] = tested on: erectile dysfunction; conditions: 2800 mg L-arginine per day
[2] = tested on: erection; conditions: dogs; intravenous injection

Structure (SMILES)	cases with favorable effect on erectile dysfunction [1]	induction of erection [2]
N=C(N)NCCC[C@H](N)C(=O)O [L-arginine]	approximately 40%	
Nc1ncnc2c1ncn2[C@@H]1O[C@H](COP(=O)(O)OP(=O)(O)OP(=O)(O)O)[C@@H](O)[C@H]1O [adenosine triphosphate]		induces erection
